From US20040192625A1, “Adrenergic receptor overexpression in airway tissues for the treatment of airway obstructive diseases” (priority 2000, published 2004)
Where “and” joins values, the source holds several entries; their conditions need not be identical. Identical values can stand only once. Entries after “also recorded” stand apart in the source; their conditions may differ. Blank lines part the entries; values can stand above or below the compound they belong to.

Experiments:
[1] = target: stimulatory guanine nucleotide binding protein (Gs) (mouse) (UniProt P63094); test: cell-based or functional assay
[2] = test system: airway responsiveness in conscious, unrestrained mice; test: In vivo airway responsiveness to methacholine by whole body plethysmography (Penh); design: species or system mouse; settings: for maximal Penh (bronchoconstriction induced by methacholine): no pretreatment; for maximal Penh to methacholine after albuterol pretreatment: aerosolized albuterol 0.1 mg/ml for 20 min
Procedure: FIG. 9. In vivo measurement of airway hyperreactivity in conscious, unrestrained mice. Airway responsiveness to methacholine was assessed using a rodent whole body plethysmography system to measure Penh (see EXPERIMENTAL PROCEDURES). The mice were first treated with aerosolized PBS to establish baseline function, which was then followed by increasing doses of aerosolized methacholine. On a separate day, the same mice were first pretreated with aerosolized albuterol (0.1 mg/ml) for 20 min. Penh values are reported as percent of the PBS (baseline) value. Bronchoconstriction was greatest in the untreated, NTG control mice (n=12) with a maximal increase in Penh of 558±42%. Pretreatment with albuterol lowered the maximal increase in Penh to 373±33% (p<0.02). The maximum Penh achieved in the transgenic mice (250±26%, n=9) was less than that of both the untreated (p<0.001) and the pretreated NTG mice (p<0.02).
In Vivo Airway Physiology. Airway responsiveness to methacholine was measured noninvasively in conscious, unrestrained mice using a whole body plethysmograph (Buxco Electronics, Troy N.Y.) (28). Using this system, the volume changes that occur during a normal respiratory cycle are recorded as the pressure difference between the animal-containing chamber and a reference chamber. The resulting signal is used to calculate respiratory frequency, minute volume, tidal volume, and enhanced pause (Penh). Penh is a unitless value that is a function of the peak inspiratory (PIP) and peak expiratory (PEP) pressures and the timing of expiration and is calculated as: […]
where Pause is the ratio of time spent in the last third of expiration relative to early expiration. […] Mice were placed in the chamber and allowed to adjust to their surroundings for 10 min. They were then exposed to aerosolized PBS (to establish baseline), followed by increasing concentrations of methacholine (2.5 to 80 mg/ml). Aerosolization was for 3 min and respiratory measurements were recorded and averaged for the subsequent 5 min after each dose. The degree of bronchoconstriction was expressed as the percent change in Penh relative to the PBS baseline. On a separate day, the mice were submitted to the same protocol except that they were first treated with aerosolized albuterol (0.1 mg/ml) for 20 min. The concentration-response data for each individual mouse were fit to a sigmoid curve by an iterative least squares technique, and the dose of methacholine required to double baseline Penh (ED200) was derived.

β2AR [3] = settings: membranes from nontransgenic cells, absence of GTP
Procedure: Radioligand Binding and cAMP Studies. To prepare membranes from lung tissue, lungs from an individual mouse were homogenized with a Polytron (Brinkman) in 10 ml of hypotonic lysis buffer (5 mM Tris, pH 7.4, 2 mM EDTA) containing the protease inhibitors leupeptin, aprotinin, benzamidine and soybean trypsin inhibitor (10 μg/ml each). Detached smooth muscle cells from primary cultures were processed similarly. Homogenates were centrifuged at 40,000×g for 10 min at 4° C. […] Competition data were fit to a two-site model when this fit was statistically (p<0.05) better than a one-site fit by F-test, using Prizm software (GraphPad, San Diego Calif.). Receptor density on the cell surface was assessed using methods previously described (24). […] After trypsin activity was neutralized by the addition of FCS, the cells were washed with PBS and resuspended in DMEM. […] Bound radioactivity was separated by filtration and washing over GF/C glass fiber filters. Cyclic AMP content of attached mouse smooth muscle cells in culture exposed to 10 µM isoproterenol or carrier for 10 min was measured by an acetylated radioimmunoassay method as described (19). Adenylyl cyclase activity was measured in membranes prepared as above using column chromatography as previously described (25).

tracheal rings = test: Ex vivo tracheal ring contractility / relaxation (organ bath)
adenylyl cyclase = test: Adenylyl cyclase activity in tracheal smooth muscle cell membranes; format: biochemical, mouse; settings: for maximal isoproterenol stimulated adenylyl cyclase activity: 10 μM isoproterenol, n=4
Procedure: (§1) FIG. 7. cAMP production and adenylyl cyclase activity in isolated tracheal smooth muscle cells. […] Results are from four independent experiments. (B) Adenylyl cyclase activity was measured in membranes prepared from tracheal smooth muscle cells of transgenic and nontransgenic mice. Reactions were carried out in the presence of the indicated concentrations of isoproterenol for 10 min at 37° C. Detection of [^32P]cAMP produced was determined by column chromatography. Shown is a representative dose response curve.
Radioligand Binding and cAMP Studies. To prepare membranes from lung tissue, lungs from an individual mouse were homogenized with a Polytron (Brinkman) in 10 ml of hypotonic lysis buffer (5 mM Tris, pH 7.4, 2 mM EDTA) containing the protease inhibitors leupeptin, aprotinin, benzamidine and soybean trypsin inhibitor (10 μg/ml each). Detached smooth muscle cells from primary cultures were processed similarly. Homogenates were centrifuged at 40,000×g for 10 min at 4° C. […] Competition data were fit to a two-site model when this fit was statistically (p<0.05) better than a one-site fit by F-test, using Prizm software (GraphPad, San Diego Calif.). Receptor density on the cell surface was assessed using methods previously described (24). […] After trypsin activity was neutralized by the addition of FCS, the cells were washed with PBS and resuspended in DMEM. […] Binding to receptors localized throughout the cell was defined as that displaced by propranolol, while cell surface binding was defined as that displaced by CGP12177 (24). Bound radioactivity was separated by filtration and washing over GF/C glass fiber filters. Cyclic AMP content of attached mouse smooth muscle cells in culture exposed to 10 µM isoproterenol or carrier for 10 min was measured by an acetylated radioimmunoassay method as described (19). Adenylyl cyclase activity was measured in membranes prepared as above using column chromatography as previously described (25).

β2AR [4] = target: β2AR (Mus musculus, UniProt P18762)
Procedure: as §1
Radioligand Binding and cAMP Studies. To prepare membranes from lung tissue, lungs from an individual mouse were homogenized with a Polytron (Brinkman) in 10 ml of hypotonic lysis buffer (5 mM Tris, pH 7.4, 2 mM EDTA) containing the protease inhibitors leupeptin, aprotinin, benzamidine and soybean trypsin inhibitor (10 μg/ml each). […] Receptor density on the cell surface was assessed using methods previously described (24). […] Bound radioactivity was separated by filtration and washing over GF/C glass fiber filters. Cyclic AMP content of attached mouse smooth muscle cells in culture exposed to 10 µM isoproterenol or carrier for 10 min was measured by an acetylated radioimmunoassay method as described (19). Adenylyl cyclase activity was measured in membranes prepared as above using column chromatography as previously described (25).

Sequence of β2AR (Mus musculus, UniProt P18762) (P18762 whole entry): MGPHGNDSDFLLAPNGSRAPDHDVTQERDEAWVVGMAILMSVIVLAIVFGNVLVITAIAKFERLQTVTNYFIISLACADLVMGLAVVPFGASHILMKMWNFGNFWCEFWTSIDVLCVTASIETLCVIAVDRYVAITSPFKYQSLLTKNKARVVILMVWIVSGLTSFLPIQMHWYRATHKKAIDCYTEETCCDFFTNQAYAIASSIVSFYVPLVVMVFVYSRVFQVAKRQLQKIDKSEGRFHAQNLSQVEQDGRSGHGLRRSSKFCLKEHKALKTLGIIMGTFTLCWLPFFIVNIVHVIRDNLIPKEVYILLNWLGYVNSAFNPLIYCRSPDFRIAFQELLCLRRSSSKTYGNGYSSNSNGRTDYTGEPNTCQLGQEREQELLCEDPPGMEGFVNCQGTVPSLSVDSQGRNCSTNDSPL
Sequence of stimulatory guanine nucleotide binding protein (Gs) (mouse) (P63094 2-394): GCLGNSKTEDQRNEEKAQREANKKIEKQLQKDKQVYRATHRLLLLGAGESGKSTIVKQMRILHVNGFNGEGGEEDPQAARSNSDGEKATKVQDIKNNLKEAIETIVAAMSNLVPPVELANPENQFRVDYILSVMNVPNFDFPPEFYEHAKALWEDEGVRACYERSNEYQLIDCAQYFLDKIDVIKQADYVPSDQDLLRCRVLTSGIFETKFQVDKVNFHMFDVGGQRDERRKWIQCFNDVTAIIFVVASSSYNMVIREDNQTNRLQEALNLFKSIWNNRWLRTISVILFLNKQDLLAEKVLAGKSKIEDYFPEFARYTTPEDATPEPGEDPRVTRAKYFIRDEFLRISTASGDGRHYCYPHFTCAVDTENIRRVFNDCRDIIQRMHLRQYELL

proportion of receptors in the high affinity state (% RH), isoproterenol competition of [125I]CYP binding in the absence of GTP [1]: 36%
Compound: endogenous β-adrenergic receptor of tracheal smooth muscle cells from nontransgenic mice (from UniProt P18762 1-418)

Compound: CC(=O)OC(C)C[N+](C)(C)C (stereo not drawn) [methacholine]
maximal Penh (bronchoconstriction induced by methacholine) ([2]; SMP8-β2AR transgenic mice, n=9): 250±26 % of baseline
ED200 (dose of methacholine required to double baseline Penh) ([2]; SMP-β2AR mice): 35.7 ± 10.6 mg/mL
ED200 (dose of methacholine required to double baseline Penh) ([2]; nontransgenic mice): 12.1 ± 1.90 mg/mL
maximal Penh (bronchoconstriction induced by methacholine) ([2]; nontransgenic mice, n=12): 558±42 % of baseline

Compound: CC(C)(C)NCC(O)c1ccc(O)c(CO)c1 (stereo not drawn) [albuterol]
methacholine-induced increase in Penh after albuterol pretreatment ([2]; SMP8-β2AR mice, methacholine up to 80 mg/ml): no increase in Penh; also recorded: no methacholine-induced bronchoconstriction was observed
maximal Penh to methacholine after albuterol pretreatment ([2]; SMP8-β2AR transgenic mice): 146±12 % of baseline and 138±11 % of baseline
maximal Penh to methacholine after albuterol pretreatment ([2]; nontransgenic mice): 373±33 % of baseline

Compound: CC(C)NCC(O)c1ccc(O)c(O)c1 (stereo not drawn) [isoproterenol]
proportion of receptors in the high affinity state (% RH) (β2AR [3]): 36±6.7%
maximal extent of relaxation, transgenic vs nontransgenic rings (tracheal rings; isoproterenol, rings pre-constricted with 10 μM acetylcholine): equivalent
percent isoproterenol stimulation of adenylyl cyclase over basal (adenylyl cyclase; nontransgenic membranes): ~46%
maximal isoproterenol stimulated adenylyl cyclase activity (adenylyl cyclase; nontransgenic membranes): 251 ± 7.3 pmol/min/mg
percent isoproterenol stimulation of adenylyl cyclase over basal (adenylyl cyclase; transgenic membranes): ~125%
maximal isoproterenol stimulated adenylyl cyclase activity (adenylyl cyclase; transgenic membranes): 609 ± 74.7 pmol/min/mg
isoproterenol-stimulated cAMP content (β2AR [4]; nontransgenic airway smooth muscle cells, 10 min, n=5): 2.05 ± 0.10 pmol/mL
isoproterenol-stimulated cAMP, percent-stimulation over basal (β2AR [4]; nontransgenic cells): ~50%
maximal Penh to methacholine after acute albuterol in mice pretreated with isoproterenol ([2]; SMP8-β2AR transgenic mice, isoproterenol by osmotic minipump for three continuous days): 128±1 % of baseline

Compound: Cc1ccc(OCC(O)C(C)NC(C)C)c2c1CCC2 (stereo not drawn) [ICI 118,551]
effect on enhanced isoproterenol-induced relaxation in SMP8-β2AR mice (tracheal rings; pretreatment 0.1 μM): blocked; also recorded: abolished
